System: CT26 challenge tumors
Test: Anti-tumor vaccination assay (whole-cell vaccine, live CT26 challenge)
Type: in vivo, Balb/c mice
Settings: challenge tumor at day 26; mice immunized with CT26 cells treated in vitro (plasma 300 mJ or Cisplatin 50 μM 24 hours)
Procedure: To ascertain whether the DAMP signals elicited by plasma could enhance immune responses against cancer, a vaccination assay was performed. […] Cells were prepared for inoculation and injected into the left flank as a whole-cell vaccine to allow an immune response to develop. One week after immunization, mice were challenged with live CT26 cancer cells on the opposite flank and tumor growth was monitored twice a week until day 26 when the study was terminated as a subset of the animals reached IACUC-approved endpoints (FIG. 8A). CT26 cells treated with media only or Cisplatin (50 μM for 24 hours), a non-ICD inducer, [60] were used as controls.
Cisplatin-vaccine was prepared from cells incubated for 24 hours in Cisplatin media. Media-Vaccine was prepared from cells cultured in regular, complete media for 24 hours. Cisplatin- and media-vaccines were used as controls.
After a 24-hour incubation 3×10^6 cells in 100 μL of PBS were inoculated subcutaneously into the left flank of Balb/c mice. Seven days later, mice were challenged with 3×10^5 live CT26 cells subcutaneously injected into the right flank. Tumors were measured twice weekly with calipers and all mice were euthanized on […].

N.N.[Cl][Pt][Cl] [Cisplatin]
mean tumor volume: 1041.8±208.3 mm^3
